Laboratory results reported in patent US20250345446A1 (Draupnir Bio ApS, priority 2022, published 2025).
Read-outs that look alike come from different tables or passages of the source. Values belong to the compound of their own block, whether it stands above or below them. Residues, ends and D or L forms follow the SMILES beside them. *: point of attachment. Biotin = O=C1N[C@H]2[C@H](CS[C@H]2CCCCC(=O)*)N1

What was measured:
[1] = molecular target: T1, soluble ectodomain of sortilin-6his (Homo sapiens, UniProt Q99523, V650M); test: MST binding to soluble ectodomain of sortilin-6his; conditions: MST, read-out: KD score, binding to sortilin (Kd)
T1 construct: the soluble ectodomain of sortilin-6his is measured by microscale thermophoresis (MST)

[2] = tested on: HEK293 cells expressing full length sortilin receptor; test: Cellular uptake of TNFalpha / Cy5-TNFalpha mediated by bifunctional compounds; assay type: cell-based; conditions: 24 h, 0.5 nM to 20 μM, leupeptin 80 μM vs without
Protocol: Cellular uptake of TNFalpha was investigated in HEK293 cells expressing full length sortilin receptor using a methodology analogous to example 3 with TNFalpha target.
Efficacy of individual bifunctional compounds was assessed as AUC of TNFalpha internalisation (Table 9)

HEK293/sortilin cells [3] = test: Remaining TNFalpha in conditioned media (ELISA); assay type: cell-based; conditions: after 72 h, 20 nM TNFalpha; added TNFalpha (100%) subtracted remaining TNFalpha (%)
Protocol: In different experiments, HEK293/sortilin cells were incubated with compound gradient series and 20 nM TNFalpha for up to 72 h. Following incubation, remaining TNFalpha in conditioned media was evaluated using human TNF-alpha Quantikine ELISA Kit (R&D systems, DTA00D).

HEK293/sortilin cells [4] = test: Pulse-chase cellular degradation of TNFalpha (Western blot of lysates); assay type: cell-based; conditions: 24 h pre-incubation with compound 3 μM and TNFalpha 100 nM, chase 0 h to 24 h
Protocol: To monitor cellular degradation of target over time, a pulse-chase experiment was performed: HEK293/sortilin cells were pre-incubated with bifunctional compound (3 μM) and TNFalpha (100 nM) for 24 h before replacing culture supernatant with fresh media without target and bifunctional compound. Following replacement of media, cells were incubated for up to 24 h and TNFa levels was assessed at different timepoints by Western blotting of cell lysates.

TNFa plasma levels = test: Mouse model of LPS induced acute systemic inflammation, plasma TNFa; assay type: in vivo; conditions: 10 or 30 mg/kg, 1 hour after LPS, C57BL/6J mice, p<0.0001 (one-way ANOVA)
Protocol: Degrader in vivo efficacy was investigated in a mouse model of lipopolysaccaride (LPS) induced acute systemic inflammation. Female C57BL/6J mice, 8 weeks of age were used in this model, and LPS was dosed as IP injection at a final concentration of 0.5 mg/kg in PBS at 10 ml/kg. 30 min to 3 hours prior LPS administration, animals were dosed with test compound (100-0.3 mg/kg/IP), dexamethasone (Dex) control (0.5 mg/kg/PO) or vehicle control (IP). Untreated (normal) animals were included as control for LPS induced TNFa expression. One hour post LPS administration, blood samples were collected and TNFa level was assessed by Cytometric Bead Array assay.

HEK293/sortilin cells [5] = test: Lysosomal degradation of internalized AlexaFluor488-anti-DNP antibody (blotted lysates); assay type: cell-based; conditions: 6:30 h, AlexaFluor488-anti-DNP antibody 100 nM, compound 30 nM
Protocol: Intracellular levels of AlexaFluor488-anti-DNP antibody (Thermo Fisher) following internalization was investigated in HEK293/sortilin cells. Cells (250k) were seeded in 4-well plates in 250 μL culture medium as described in Example 3 and incubated overnight.
Culture medium was replaced with assay medium (as described in Example 3) with AlexaFluor488-anti-DNP antibody (Thermo Fisher) (100 nM) and BF005 (30 nM). Selected samples were added sortilin inhibitor, AF38469 (10 μM) or a lysosomal protease inhibitor, Leupeptin (80 μM) (Sigma Aldrich). Cells were incubated 3-6: 30 h in cell incubator before they were washed with dPBS (Bionordika) and medium was either replaced with assay medium without BF005 and AlexaFluor488-anti-DNP antibody and incubated in cell incubator for up to 24 h or cells were lysed. Following incubation, cells were lysed in lysis buffer, and lysates were subjected to SDS-PAGE before transfer of proteins to a nitrocellulose membrane as described in Example 4. AlexaFluor488 FI signal was detected using an iBright 1500 (Thermo Fisher). Following evaluation of FI signal, membrane was blocked and incubated with primary anti-β-actin antibody (1:3500) (Sigma Aldrich) and secondary anti-mouse-HRP antibody (1:3500) (Abcam) and developed and analyzed using ECL reagents (Cytiva) and iBright 1500 (Thermo Fisher), as described in example 4. […]

HEK293/sortilin cells [6] = test: Depletion of NA650 from cell culture supernatant; assay type: cell-based; conditions: after 48 and 72 hours, NA650 100 nM, 20 nM-5 μM
Protocol: HEK293/sortilin cells were cultured in culture media containing DMEM (Lonza) further supplemented with 10% fetal bovine serum (Sigma), 1% GlutaMax Supplement (Gibco), penicillin-streptomycin (Thermo Fischer) and selection antibiotics 100 μg/mL Zeocin (Invitrogen). 35k cells/well were seeded in poly-L-lysine coated 96-well plates (Perkin Elmer) and allowed to incubate for 16-24 h in cell incubator (37° C., humidified, 5% CO2). Culture media were discarded, and the cells were washed with assay medium containing FluoroBright DMEM (Gibco) supplemented with 10% fetal bovine serum (Sigma) and 1% GlutaMax Supplement (Gibco). The media were discarded and replaced with assay media or assay medium containing 100 nM NA650 (Invitrogen). For wells evaluating the bifunctional compounds, the assay medium also contained concentrations ranging from 20 nM to 5 μM. After an incubation period of up to 72 h in the cell incubator the media were harvested and the presence of NA650 were evaluated by fluorescence intensity (FI) measurements of DyLight650 using a fluorescence plate reader (BMG Labtech Clariostar).
HEK293/sortilin cells (35k cells/96-well) were seeded in culture media (as described in Example 3) and incubated for 24 h in cell incubator. Culture media were discarded, and the cells were washed with assay medium containing FluoroBright DMEM (Gibco) and supplements as described in Example 3, before incubation in assay medium containing 100 nM NA650 and small molecule bifunctional compounds (20 nM to 5 μM). After an incubation period of up to 72 h, the media were harvested and the presence of NA650 were evaluated by FI measurements of DyLight650 using a fluorescence plate reader (BMG Labtech Clariostar).

HEK293/sortilin = test: Cellular uptake of target in HEK293 cells expressing sortilin receptor (Example 22); assay type: cell-based; conditions: 3 h, 2 nM to 2 μM, corresponding targets
[7] = tested on: untransfected HEK239 cells; test: Cellular uptake of target in untransfected HEK293 cells (Example 22); assay type: cell-based; conditions: HEK293 cells without sortilin, 3 h, 2 nM to 2 μM, corresponding targets
[8] = molecular target: streptavidin, bifunctional compound and sortilin-6his (UniProt P22629+Q99523, V650M); test: TR-FRET ternary complex formation streptavidin / bifunctional peptide / sortilin-6his; conditions: Table 2; […] incubation, HTRF ratio 665/620 nm
[9] = Table 4, small molecule bifunctional compounds

T1 sequence (Q99523 with tags, fused parts or gaps V650M): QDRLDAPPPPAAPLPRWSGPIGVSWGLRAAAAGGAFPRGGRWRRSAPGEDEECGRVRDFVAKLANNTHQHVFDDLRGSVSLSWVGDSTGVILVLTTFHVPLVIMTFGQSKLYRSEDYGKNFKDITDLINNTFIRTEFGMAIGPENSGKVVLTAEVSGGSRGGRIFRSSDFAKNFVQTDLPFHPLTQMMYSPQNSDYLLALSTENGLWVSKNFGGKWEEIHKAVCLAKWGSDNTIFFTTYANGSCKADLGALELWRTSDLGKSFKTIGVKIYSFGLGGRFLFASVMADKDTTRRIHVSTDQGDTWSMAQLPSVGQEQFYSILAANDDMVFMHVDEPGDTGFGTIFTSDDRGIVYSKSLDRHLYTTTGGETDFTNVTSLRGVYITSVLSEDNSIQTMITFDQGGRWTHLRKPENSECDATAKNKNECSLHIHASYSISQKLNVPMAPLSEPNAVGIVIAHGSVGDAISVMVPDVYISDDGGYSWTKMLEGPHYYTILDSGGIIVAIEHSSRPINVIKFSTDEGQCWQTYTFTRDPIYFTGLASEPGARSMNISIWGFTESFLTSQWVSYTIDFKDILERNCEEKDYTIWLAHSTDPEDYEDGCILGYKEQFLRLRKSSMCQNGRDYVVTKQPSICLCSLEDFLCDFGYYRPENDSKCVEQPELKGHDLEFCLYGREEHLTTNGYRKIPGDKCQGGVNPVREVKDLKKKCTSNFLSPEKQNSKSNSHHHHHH

Kd [1, 9]: 1 to 10 nM
SMILES: C[C@@H]1CN(c2ncc(-c3ccc4c(n3)N(Cc3cccnc3C#N)C(C)(C)C4=O)cn2)CCN1C(=O)CNC(=O)CCCCCCCCCCCNC(=O)c1cccc(Oc2ccc(C(=O)N[C@@H](CCC(C)(C)C)C(=O)O)cn2)c1 [BF042, (2S)-2-[[6-[3-[[12-[[2-[(2R)-4-[5-[1-[(2-cyano-3-pyridyl)methyl]-2,2-dimethyl-3-oxo-pyrrolo[2,3-b]pyridin-6-yl]pyrimidin-2-yl]-2-methyl-piperazin-1-yl]-2-oxo-ethyl]amino]-12-oxo-dodecyl]carbamoyl]phenoxy]pyridine-3-carbonyl]amino]-5,5-dimethyl-hexanoic acid]
cell associated FI signal with addition of leupeptin [2]: marked increases cell associated signal
Maximum clearance rates of TNFalpha from conditioned media (HEK293/sortilin cells [3]): 74.4%
TNFalpha bands in cell lysate over time (HEK293/sortilin cells [4]): barely detectable after 7 h

Kd [1, 9]: 1 to 10 nM
SMILES: Cc1nc2cc(F)c(-c3cnc(N4CCN(C(=O)Cn5cc(COCCOCCOCC(=O)N6CCC(Oc7cccc(Oc8ccc(C(=O)N[C@@H](CCC(C)(C)C)C(=O)O)cn8)c7)CC6)nn5)[C@H](C)C4)nc3)nc2c(N[C@H](C)c2cc(C#N)ccc2F)c1Cl [BF094, (2S)-2-[[6-[3-[[1-[2-[2-[2-[[1-[2-[(2R)-4-[5-[7-chloro-8-[[(1R)-1-(5-cyano-2-fluoro-phenyl)ethyl]amino]-3-fluoro-6-methyl-1,5-naphthyridin-2-yl]pyrimidin-2-yl]-2-methyl-piperazin-1-yl]-2-oxo-ethyl]triazol-4-yl]methoxy]ethoxy]ethoxy]acetyl]-4-piperidyl]oxy]phenoxy]pyridine-3-carbonyl]amino]-5,5-dimethyl-hexanoic acid]
plasma TNFa compared to vehicle group (TNFa plasma levels): significant decrease

SMILES: CNC(=O)c1cccc2c(Oc3ccc(C(=O)N[C@@H](CCC(C)(C)C)C(=O)O)cn3)cccc12 [SB001, (2S)-5,5-dimethyl-2-[[6-[[5-(methylcarbamoyl)-1-naphthyl]oxy]pyridine-3-carbonyl]amino]hexanoic acid]
Ig heavy chain (HC) band in lysates (HEK293/sortilin cells [5]): absent

SMILES: CC(C)C[C@H](NC(=O)[C@H](CC(C)C)NC(=O)[C@H](CCC(N)=O)NC(=O)[C@H](Cc1ccccc1)NC(=O)CNC(=O)CNC(=O)[C@H](CO)NC(=O)CNC(=O)CNC(=O)CNC(=O)CNC(=O)[C@H](CO)NC(=O)CNC(=O)CNC(=O)CNC(=O)CNC(=O)[C@H](CO)NC(=O)CNC(=O)CNC(=O)CCCC[C@@H]1SC[C@@H]2NC(=O)N[C@@H]21)C(=O)O [SEQ ID NO.: 155] (Biotin-GGSGGGGSGGGGSGGFQLL-OH)
Kd ([1]; Table 1, biotin-linker-peptide bifunctional compounds): 100 to 2000 nM
NA650 FI signal in supernatant compared to SEQ ID NO.: 147 (in words) (HEK293/sortilin cells [6]): further reduction of target in cell culture supernatant
cell associated FI response to increasing degrader concentration (HEK293/sortilin): bell-shaped FI response
cell associated FI response to increasing degrader concentration [7]: No response
AUC score, TR-FRET measurements of ternary complex formation [8]: ++ (AUC > 5000)
